Experimental data: patent publication US20070128217A1 (priority 2003, published 2007)

Columns and labels:
[1] = tested on: antibodies in sera from SARS patients (sera 1a, 1b, 2, 6, 37, 62, London, SARS-yellow, SARS-green); assay type: binding, human; parameters: Binding of serum 6 to linear peptides of protein X1 of SARS-CoV Urbani / Binding of serum 37 to linear peptides of protein X1 of SARS-CoV Urbani / Binding of serum 6 to looped/cyclic peptide (PEPSCAN-ELISA) / Binding of serum 37 to looped/cyclic peptide (PEPSCAN-ELISA) / Binding of serum 37 to looped/cyclic peptides of protein X1 of SARS-CoV Urbani / Binding of serum 6 to linear peptides of protein X2 / Binding of serum 37 to linear peptides of protein X2 / Binding of serum 37 to looped/cyclic peptides of protein X2 of SARS-CoV Urbani / Binding of serum 6 to linear peptides of protein M of SARS-CoV Urbani / Binding of serum 37 to linear peptides of protein M of SARS-CoV Urbani / Binding of serum 6 to looped/cyclic peptides of protein M of SARS-CoV Urbani / Binding of serum 37 to looped/cyclic peptides of protein M of SARS-CoV Urbani / Binding of serum 6 to linear peptides of protein X3 of SARS-CoV Urbani / Binding of serum 37 to linear peptides of protein X3 of SARS-CoV Urbani / Binding of serum 37 to looped/cyclic peptides of protein X3 of SARS-CoV Urbani / Binding of serum 6 to linear peptides of protein X4 of SARS-CoV Urbani / Binding of serum 37 to linear peptides of protein X4 of SARS-CoV Urbani / Binding of serum 37 to looped/cyclic peptides of protein X4 of SARS-CoV Urbani / Binding of serum 6 to linear peptides of protein X5 of SARS-CoV Urbani / Binding of serum 37 to linear peptides of protein X5 of SARS-CoV Urbani / Binding of serum 37 to looped/cyclic peptides of protein X5 of SARS-CoV Urbani / Binding of serum 6 to linear peptides of protein N of SARS-CoV Urbani / Binding of serum 37 to linear peptides of protein N of SARS-CoV Urbani / Binding of serum 6 to linear peptide (PEPSCAN-ELISA) / Binding of serum 1a to looped/cyclic peptides of protein N of SARS-CoV Urbani / Binding of serum 1b to looped/cyclic peptides of protein N of SARS-CoV Urbani / Binding of serum 2 to looped/cyclic peptides of protein N of SARS-CoV Urbani / Binding of serum 6 to looped/cyclic peptides of protein N of SARS-CoV Urbani / Binding of serum 37 to looped/cyclic peptides of protein N of SARS-CoV Urbani / Binding of serum 62 to looped/cyclic peptides of protein N of SARS-CoV Urbani / Binding of serum London to looped/cyclic peptides of protein N of SARS-CoV Urbani / Binding of serum SARS-green to looped/cyclic peptides of protein N of SARS-CoV Urbani: unit not given here
[2] = tested on: control sera (pooled serum of ten healthy LUMC hospital workers; commercial negative donor pooled serum from the Dutch bloodbank); assay type: binding, human; parameters: Binding of Control serum LUMC to linear peptides / Binding of Control serum Blood-bank to linear peptides / Binding of Control serum LUMC to looped peptides / Binding of Control Serum Blood-Bank to Looped peptides / Binding of Control serum LUMC to linear peptides of the protein M of SARS-CoV Urbani / Binding of Control serum Blood-bank to linear peptides of the protein M of SARS-CoV Urbani / Binding of Control serum LUMC to looped peptides of the protein M of SARS-CoV Urbani / Binding of Control Serum Blood-Bank to Looped peptides of the protein M of SARS-CoV Urbani: unit not given here
[3] = tested on: rabbit serum obtained by immunizing a rabbit with the SARS-CoV strain Frankfurt 1; assay type: binding; parameters: Binding of a rabbit serum to linear peptides / Binding of a rabbit serum to looped peptides / Rabbit serum linear peptides / Rabbit serum looped peptides / Binding of a rabbit serum to linear peptides of protein N of SARS-CoV Urbani (Rabbit serum linear peptides) / Binding of a rabbit serum to looped/cyclic peptides of protein N of SARS-CoV Urbani (Rabbit serum looped peptides): unit not given here

ESTQITTDTGIENAT
0.2: Binding of serum 1b to looped/cyclic peptides of protein X1 of SARS-CoV Urbani [1] | Binding of serum 6 to looped/cyclic peptides of protein X1 of SARS-CoV Urbani [1] | Binding of serum London to linear peptides of protein X1 of SARS-CoV Urbani [1] | Binding of serum London to looped/cyclic peptides of protein X1 of SARS-CoV Urbani [1] | Binding of serum SARS-green to linear peptides of protein X1 of SARS-CoV Urbani [1]
0.3: Binding of serum 2 to linear peptides of protein X1 of SARS-CoV Urbani [1] | Binding of serum 37 to looped/cyclic peptides of protein X1 of SARS-CoV Urbani [1] | Binding of serum 62 to looped/cyclic peptides of protein X1 of SARS-CoV Urbani [1] | Binding of serum SARS-yellow to looped/cyclic peptides of protein X1 of SARS-CoV Urbani [1]
0.5: Binding of serum 37 to linear peptides of protein X1 of SARS-CoV Urbani [1] | Binding of serum 62 to linear peptides of protein X1 of SARS-CoV Urbani [1] | Binding of Control serum LUMC to linear peptides [2] | Binding of a rabbit serum to looped peptides [3]
0.6: Binding of serum 1a to linear peptides of protein X1 of SARS-CoV Urbani [1]
0.1: Binding of serum 2 to looped/cyclic peptides of protein X1 of SARS-CoV Urbani [1] | Binding of serum SARS-green to looped/cyclic peptides of protein X1 of SARS-CoV Urbani [1] | Binding of serum SARS-yellow to linear peptides of protein X1 of SARS-CoV Urbani [1] | Binding of a rabbit serum to linear peptides [3]
0.4: Binding of serum 1a to looped/cyclic peptides of protein X1 of SARS-CoV Urbani [1] | Binding of serum 1b to linear peptides of protein X1 of SARS-CoV Urbani [1] | Binding of serum 6 to linear peptides of protein X1 of SARS-CoV Urbani [1] | Binding of Control Serum Blood-Bank to Looped peptides [2] | Binding of Control serum Blood-bank to linear peptides [2] | Binding of Control serum LUMC to looped peptides [2]

LTSLLKTHRMCKYTQ
0.5: Binding of serum 2 to linear peptides of protein X2 [1] | Binding of serum 6 to linear peptides of protein X2 [1] | Binding of serum London to linear peptides of protein X2 [1] | Binding of Control serum Blood-bank to linear peptides [2] | Binding of Control serum LUMC to looped peptides [2]
0.3: Binding of serum 1b to linear peptides of protein X2 [1] | Binding of serum 1b to looped/cyclic peptides of protein X2 of SARS-CoV Urbani [1] | Binding of serum 37 to looped/cyclic peptides of protein X2 of SARS-CoV Urbani [1] | Binding of serum SARS-yellow to looped/cyclic peptides of protein X2 of SARS-CoV Urbani [1] | Binding of a rabbit serum to linear peptides [3]
0.6: Binding of serum 37 to linear peptides of protein X2 [1] | Binding of serum 62 to linear peptides of protein X2 [1]
0.7: Binding of serum 1a to linear peptides of protein X2 [1]
0.4: Binding of serum 1a to looped/cyclic peptides of protein X2 of SARS-CoV Urbani [1] | Binding of serum 62 to looped/cyclic peptides of protein X2 of SARS-CoV Urbani [1] | Binding of serum SARS-yellow to linear peptides of protein X2 [1] | Binding of Control Serum Blood-Bank to Looped peptides [2] | Binding of Control serum LUMC to linear peptides [2] | Binding of a rabbit serum to looped peptides [3]
0.2: Binding of serum 2 to looped/cyclic peptides of protein X2 of SARS-CoV Urbani [1] | Binding of serum 6 to looped/cyclic peptides of protein X2 of SARS-CoV Urbani [1] | Binding of serum London to looped/cyclic peptides of protein X2 of SARS-CoV Urbani [1] | Binding of serum SARS-green to linear peptides of protein X2 [1] | Binding of serum SARS-green to looped/cyclic peptides of protein X2 of SARS-CoV Urbani [1]

YHITVSQIQLSLLKV
0.3: Binding of serum SARS-green to looped/cyclic peptides of protein X2 of SARS-CoV Urbani [1] | Binding of Control Serum Blood-Bank to Looped peptides [2] | Binding of a rabbit serum to looped peptides [3]
0.7: Binding of serum 37 to linear peptides of protein X2 [1] | Binding of Control serum LUMC to linear peptides [2]
0.1: Binding of serum 6 to looped/cyclic peptides of protein X2 of SARS-CoV Urbani [1] | Binding of serum SARS-green to linear peptides of protein X2 [1]
0.8: Binding of a rabbit serum to linear peptides [3]
0.4: Binding of serum 1a to looped/cyclic peptides of protein X2 of SARS-CoV Urbani [1] | Binding of serum 1b to looped/cyclic peptides of protein X2 of SARS-CoV Urbani [1] | Binding of serum 2 to looped/cyclic peptides of protein X2 of SARS-CoV Urbani [1] | Binding of serum 37 to looped/cyclic peptides of protein X2 of SARS-CoV Urbani [1] | Binding of serum London to linear peptides of protein X2 [1] | Binding of serum SARS-yellow to looped/cyclic peptides of protein X2 of SARS-CoV Urbani [1] | Binding of Control serum LUMC to looped peptides [2]
0.2: Binding of serum London to looped/cyclic peptides of protein X2 of SARS-CoV Urbani [1]
0.5: Binding of serum 1b to linear peptides of protein X2 [1] | Binding of serum 2 to linear peptides of protein X2 [1] | Binding of serum 6 to linear peptides of protein X2 [1] | Binding of serum 62 to linear peptides of protein X2 [1] | Binding of serum 62 to looped/cyclic peptides of protein X2 of SARS-CoV Urbani [1]
0.6: Binding of serum 1a to linear peptides of protein X2 [1] | Binding of serum SARS-yellow to linear peptides of protein X2 [1] | Binding of Control serum Blood-bank to linear peptides [2]
